Laboratory results as given in ChEMBL document CHEMBL1201862, “PubChem BioAssay data set” (2004).
Where “and” joins values, the source holds several entries; their conditions need not be identical. Equal values may be shown once.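 In this assay, cells in 96-well plates receive the compound at five concentrations for 48 hours. Endpoints are linearly interpolated between the surrounding concentrations. GI50: concentration for 50% inhibition of growth.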 Calls of active or inactive are those of the source. Cut-off read from the data, not from the text of the source: active = GI50 up to about 1.1 µM and inactive = higher.

Assays:
Assay in all cases: DTP human tumour cell line panel, 48 h
[1] = system: NCI-H23
[2] = system: SW-620
[3] = system: ACHN
[4] = system: MDA-N
[5] = system: SR
[6] = system: UO-31
[7] = system: UACC-62
[8] = system: COLO 205
[9] = system: HL-60
[10] = system: RPMI-8226
[11] = system: SK-MEL-28
[12] = system: MDA-MB-231
[13] = system: CAKI-1
[14] = system: OVCAR-4
[15] = system: Hs-578T
[16] = system: OVCAR-8
[17] = system: UACC-257
[18] = system: LOX IMVI
[19] = system: A498
[20] = system: HCC 2998

SMILES | GI50 [1] | GI50 [2] | GI50 [3] | GI50 [4] | GI50 [5] | GI50 [6] | GI50 [7] | GI50 [8] | GI50 [9] | GI50 [10] | GI50 [11] | GI50 [12] | GI50 [13] | GI50 [14] | GI50 [15] | GI50 [16] | GI50 [17] | GI50 [18] | GI50 [19] | GI50 [20]
COc1ccc(N(CC(=O)O)N=O)cc1 | > 100 µM (inactive) | > 100 µM (inactive) | > 100 µM (inactive) | > 100 µM (inactive) | > 100 µM (inactive) | > 100 µM (inactive) | > 100 µM (inactive) | > 100 µM (inactive) | > 100 µM (inactive) | > 100 µM (inactive) | > 100 µM (inactive) | > 100 µM (inactive) | > 100 µM (inactive) | > 100 µM (inactive) | > 100 µM (inactive) | > 100 µM (inactive) | > 100 µM (inactive) | > 100 µM (inactive) | > 100 µM (inactive) | –
Clc1ccccc1NN(Cc1ccccn1)c1ccccc1Cl | 20 µM (inactive) | 17.7 µM (inactive) | 33.9 µM (inactive) | 17.2 µM (inactive) | 13.4 µM (inactive) | 20.4 µM (inactive) | 16.7 µM (inactive) | 15.6 µM (inactive) | 18.5 µM (inactive) | 16.1 µM (inactive) | 20.5 µM (inactive) | 23.4 µM (inactive) | 54.3 µM (inactive) | 16.2 µM (inactive) | 26.2 µM (inactive) | 21.2 µM (inactive) | – | 18.6 µM (inactive) | 20.5 µM (inactive) | –
COc1cc(/C=C2/C[C@H]3[C@@H]4CC=C5C[C@@H](OC(C)=O)CC[C@]5(C)[C@H]4CC[C@]3(C)NC2=O)cc(OC)c1OC | 23.9 µM (inactive) | 54 µM (inactive) | 19.1 µM (inactive) | 42.7 µM (inactive) | 47.6 µM (inactive) | 18.1 µM (inactive) | 19.8 µM (inactive) | > 100 µM (inactive) | – | – | 26.2 µM (inactive) | 22 µM (inactive) | 29.5 µM (inactive) | 17.4 µM (inactive) | 24.2 µM (inactive) | 27.8 µM (inactive) | 26.5 µM (inactive) | 38.7 µM (inactive) | – | 43.4 µM (inactive)
COC(=O)[C@]1(C)CCC[C@@]2(C)C1CC[C@@]13C=C(C(C)C)[C@@H](CC1=O)CC23 (stereo partly specified) | 34 µM (inactive) | 27.3 µM (inactive) | 18.6 µM (inactive) | 28.8 µM (inactive) | 15.5 µM (inactive) | 21.7 µM (inactive) | 28.6 µM (inactive) | > 10 µM (inactive) | 19.8 µM (inactive) | 18.5 µM (inactive) | 41.3 µM (inactive) | 30.3 µM (inactive) | 34.2 µM (inactive) | 35.2 µM (inactive) | 13.4 µM (inactive) | 29 µM (inactive) | 21.5 µM (inactive) | – | – | 38.3 µM (inactive)
COc1ccc(/C=C2/N/C(=N\N=C/C(O)C(O)C(O)CO)NC2=O)cc1 (stereo unspecified) | – | > 100 µM (inactive) and 77.8 µM (inactive) | > 100 µM (inactive) and 89.5 µM (inactive) | 72.6 µM (inactive) | > 100 µM (inactive) | > 100 µM (inactive) | – | 91.4 µM (inactive) | > 100 µM (inactive) | > 100 µM (inactive) | – | 91 µM (inactive) | > 100 µM (inactive) | – | 78.2 µM (inactive) | > 100 µM (inactive) | > 100 µM (inactive) | > 100 µM (inactive) | – | 58.5 µM (inactive)
COc1ccc(C(=O)O[C@@H]2CCN3CC[C@H](C)[C@H]23)cc1 | > 100 µM (inactive) | > 100 µM (inactive) | > 100 µM (inactive) | > 100 µM (inactive) | > 100 µM (inactive) | 58.1 µM (inactive) | > 100 µM (inactive) | > 100 µM (inactive) | > 100 µM (inactive) | > 100 µM (inactive) | > 100 µM (inactive) | > 100 µM (inactive) | > 100 µM (inactive) | – | > 100 µM (inactive) | > 100 µM (inactive) | > 100 µM (inactive) | > 100 µM (inactive) | > 100 µM (inactive) | –
CC[n+]1[b-](C(C)(C)C)n(/N=C/C(C)(C)C)[b-](C(C)(C)C)[n+]1CC | > 100 µM (inactive) | > 100 µM (inactive) | > 100 µM (inactive) | > 100 µM (inactive) | > 100 µM (inactive) | > 100 µM (inactive) | > 100 µM (inactive) | > 100 µM (inactive) | – | – | > 100 µM (inactive) | > 100 µM (inactive) | > 100 µM (inactive) | > 100 µM (inactive) | > 100 µM (inactive) | > 100 µM (inactive) | > 100 µM (inactive) | > 100 µM (inactive) | – | > 100 µM (inactive)
CC(=O)Oc1ccc2cc(Oc3cc(Cl)c(Cl)cc3Cl)c(=O)oc2c1 | 22.2 µM (inactive) | 14.8 µM (inactive) | 22.9 µM (inactive) | 14.6 µM (inactive) | 19.8 µM (inactive) | 13.1 µM (inactive) | – | – | 22.7 µM (inactive) | – | 26.2 µM (inactive) | 16.4 µM (inactive) | 18 µM (inactive) | 34.5 µM (inactive) | 22.2 µM (inactive) | 17.1 µM (inactive) | 20.6 µM (inactive) | 15.4 µM (inactive) | 17.7 µM (inactive) | 17.1 µM (inactive)
COC(=O)CCCc1ccc2c(c1)CCC2 | > 100 µM (inactive) | > 100 µM (inactive) | > 100 µM (inactive) | > 100 µM (inactive) | > 100 µM (inactive) | > 100 µM (inactive) | > 100 µM (inactive) | > 100 µM (inactive) | > 100 µM (inactive) | > 100 µM (inactive) | > 100 µM (inactive) | > 100 µM (inactive) | > 100 µM (inactive) | > 100 µM (inactive) | > 100 µM (inactive) | > 100 µM (inactive) | > 100 µM (inactive) | > 100 µM (inactive) | – | > 100 µM (inactive)
C/C(=N\NC(=S)N1CCCCCCCCCCCC1)c1ccccn1 | 0.379 µM (active) | 0.0652 µM (active) | 0.215 µM (active) | 0.126 µM (active) | 0.0782 µM (active) | 0.349 µM (active) | – | 0.0522 µM (active) | 0.0167 µM (active) | – | 0.33 µM (active) | 0.169 µM (active) | 0.246 µM (active) | 0.0491 µM (active) | 0.24 µM (active) | 0.147 µM (active) | 0.0689 µM (active) | 0.135 µM (active) | 0.372 µM (active) | 0.385 µM (active)
CC1=CC(=O)N(n2c(Cc3ccccc3)n[nH]c2=O)C1=O | > 100 µM (inactive) | 83.9 µM (inactive) | > 100 µM (inactive) | > 100 µM (inactive) | 72.6 µM (inactive) | > 100 µM (inactive) | > 100 µM (inactive) | > 100 µM (inactive) | – | 52 µM (inactive) | – | > 100 µM (inactive) | > 100 µM (inactive) | > 100 µM (inactive) | > 100 µM (inactive) | > 100 µM (inactive) | > 100 µM (inactive) | 83.4 µM (inactive) | > 100 µM (inactive) | > 100 µM (inactive)
CC(C)CCC[C@@H](C)[C@H]1CC[C@H]2[C@@H]3CC=C4C[C@@H](OC(=O)c5cccc6c(=O)c7ccccc7[nH]c56)CC[C@]4(C)[C@H]3CC[C@]12C | > 75 µM (inactive) | > 75 µM (inactive) | > 75 µM (inactive) | 1.56 µM (inactive) | > 75 µM (inactive) | > 75 µM (inactive) | > 75 µM (inactive) | > 75 µM (inactive) | – | > 75 µM (inactive) | > 75 µM (inactive) | 3.91 µM (inactive) | – | 3.5 µM (inactive) | > 75 µM (inactive) | > 75 µM (inactive) | > 75 µM (inactive) | > 75 µM (inactive) | > 75 µM (inactive) | > 75 µM (inactive)
Cc1ccc(/N=N/C(=N/c2ccccc2)c2ccc(N(CCC#N)CCC#N)cc2)cc1 | 18.3 µM (inactive) | 45.6 µM (inactive) | 46 µM (inactive) | 31.6 µM (inactive) | 27.9 µM (inactive) | 60.3 µM (inactive) | 21.8 µM (inactive) | 21.7 µM (inactive) | – | 39 µM (inactive) | 39.8 µM (inactive) | 22.1 µM (inactive) | 55.5 µM (inactive) | 42.6 µM (inactive) | 37 µM (inactive) | 26.1 µM (inactive) | 19.3 µM (inactive) | – | 45.4 µM (inactive) | 19.4 µM (inactive)
CC(=O)OCc1ccc2oc(=O)c(C(=O)Oc3cccc(Cl)c3)cc2c1 | 74.6 µM (inactive) | 56.4 µM (inactive) | 38.2 µM (inactive) | > 100 µM (inactive) | 44.8 µM (inactive) | 22.1 µM (inactive) | 17.4 µM (inactive) | 30.3 µM (inactive) | – | > 100 µM (inactive) | 83 µM (inactive) | 32.4 µM (inactive) | 42.9 µM (inactive) | > 100 µM (inactive) | > 100 µM (inactive) | > 100 µM (inactive) | 62.7 µM (inactive) | > 100 µM (inactive) | – | 19.4 µM (inactive)
O=C1/C(=C/c2cccc([N+](=O)[O-])c2)Cc2ccccc21 | 73.1 µM (inactive) | 94.8 µM (inactive) | > 100 µM (inactive) | > 100 µM (inactive) | 36.8 µM (inactive) | 94.8 µM (inactive) | > 100 µM (inactive) | > 100 µM (inactive) | > 100 µM (inactive) | > 100 µM (inactive) | > 100 µM (inactive) | > 100 µM (inactive) | > 100 µM (inactive) | 75 µM (inactive) | > 100 µM (inactive) | > 100 µM (inactive) | > 100 µM (inactive) | > 100 µM (inactive) | – | –
